Laboratory results reported in patent EP4772500A1, “NOVEL ISOXAZOLE COMPOUND AS TM4SF5-SPECIFIC INHIBITOR AND USE THEREOF” (Seoul National University R&DB Foundation, priority 2023, dated 2025).

Key:
[1] = system: liver cancer patient-derived cancer fragments (HCC cube) confirmed to express TM4SF5; assay: TM4SF5-expressing HCC-PDX (patient-derived tissue xenograft) model; type: in vivo, NOD/SCID mice; settings: for body weight: 5 mg/kg IP twice a week (FIG. 21c); for tumor volume: vs vehicle (FIG. 21c); for PD-L1 expression / SLAMF7 staining / expression of TM4SF5: immunohistochemistry (FIG. 21e); for expressions of Ki67, AFP, F4/80, CCL2 and CCL5, and laminin γ2: immunohistochemistry (FIG. 21d); for cancer formation: immunohistochemistry or H&E staining (FIG. 21d)
Procedure: The experiment was conducted by obtaining patient-derived liver cancer segments (P0; HCC cube, 1 mm^3) confirmed to express TM4SF5 from Seoul National University Hospital, which passed the normal IRB approval process (H-2102-059-1195). The hair from the right thigh to the flank of 6-week-old male NOD/SCID mice was removed, and the mice were anesthetized by inhalation with […] isoflurane. Thereafter, a cancer segment was implanted into the right […] of the mice. When the cancer segments were engrafted and grew beyond a certain size at 4 to 5 weeks after implanting the tissue, the animals were sacrificed to obtain cancer segments (P1). The cancer segments were cut into a size of 1 mm^3 and placed in cryotubes with Recovery-Cell Culture Freezing Medium (Gibco) and stored in a […] liquid nitrogen tank. After obtaining P2 and P3 cancer segments in the same manner as above, one P3 cancer segment (1 mm^3) was implanted per 6-week-old male NOD/SCID mouse to establish the HCC-PDX mouse model used in this experiment. From the 8th day after implanting the cancer segments, vehicle, drug ST-5-001, or ST-5-002 was intraperitoneally injected at 5 mg/kg twice a week for a total of 6 times. On the 28th day after implanting the cancer tissue, the animals were sacrificed, and liver cancer tissues were obtained and used for analysis.
(a-d) A TM4SF5-expressing HCC-PDX model was established by implanting liver cancer patient-derived cancer fragments (HCC cube, 1 mm^3), confirmed to express TM4SF5, into the right thigh of 6-week-old male NOD/SCID mice (n=8) deficient in T, B, and NK immune cells. Starting from the 8th day after the tissue implantation, vehicle, drug ST-5-001, or ST-5-002 was intraperitoneally injected at 5 mg/kg twice a week on the indicated dates (a). After 6 injections, the animals were sacrificed on the 28th day after the cancer tissue implantation, liver tissues were obtained, and images of the livers were taken (b). From the 8th day after the implantation, body weight and tumor volume were measured and recorded on each drug injection day (c). Meanwhile, for a portion of the liver tissues, the expression level, distribution, and localization of each factor, as well as the degree of damage to the liver cancer tissue, were confirmed through immunohistochemistry or H&E staining for the given protein factors (d).

[2] = system: TM4SF5-expressing cells (SNU449T7); assay: 2D cell growth/proliferation; type: cell-based, human; settings: 2D environment, drug every 24 hours (FIG. 3a)
Procedure: The drugs treated were the positive control drug TSAHC or the ST-1-025 isoxazole compound at the given concentrations. From the time of starting culture (0 day), (FIG. 3a) in the case of 2D culture, the number of cells was measured after treating with the drug every 24 hours, or (FIG. 3b) in a 3D environment, the proliferation of cells (spheres) was observed and photographed with an optical microscope on the 5th and 7th days after a single drug treatment at the start of culture.

[3] = target: T1, TM4SF5 (Homo sapiens, UniProt O14894); assay: Streptavidin pulldown and Western blotting: binding between TM4SF5 and cell membrane receptors/signaling factors; type: cell-based; parameters: expressed in transfected cells; host or cells: SNU449 human hepatocellular carcinoma cells, stably transfected; settings: 24 hours
T1 sequence (O14894 1-197): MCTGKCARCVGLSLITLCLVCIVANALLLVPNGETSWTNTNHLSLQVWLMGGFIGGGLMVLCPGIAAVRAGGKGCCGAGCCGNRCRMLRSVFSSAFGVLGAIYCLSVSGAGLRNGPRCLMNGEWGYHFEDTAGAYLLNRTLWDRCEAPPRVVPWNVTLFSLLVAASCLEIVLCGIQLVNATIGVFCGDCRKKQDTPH
Procedure: Cells were cultured to ~60% density in a cell incubator at 37°C and 5% CO2, and then transfected using PEI and cultured in a cell incubator at 37°C for two days. After cultivation, cell extracts were obtained by the method described above. After precipitating a desired protein from the cell extracts using an immunoprecipitation method, the binding proteins were identified by the Western blot technique described above. Specifically, cells cultured in a 100 mm cell culture dish for two days were washed twice with PBS, and protease inhibitor cocktails (GenDepot, USA) were added to 500 µl of immunoprecipitation lysis buffer (0.5% Triton X-100 or Brij 58, 40 mM HEPES, 150 mM NaCl, 1 mM EDTA, pH 7.4), followed by treatment at 4°C for 15 minutes. […] Proteins therein were quantified using a BCA reagent (Thermo Scientifics, USA). An electrophoresis sample was prepared by adding 4x laemmli sample buffer to a portion of the quantified sample and boiling at 100°C for 5 minutes. For immunoprecipitation, Streptavidin Agarose Resin (Thermo Fisher Scientific) or anti-HA antibody-coated Sepharose beads were added in proportion to the quantified protein amount, followed by rotation at 4°C for 4 hours, and then centrifugation was performed at 7,000x g at 4°C for 5 minutes and the supernatant was discarded. […]

Q: Which results are given for Cc1ccc(C(=O)Nc2ccc(-c3cc(-c4ccc(O)cc4)no3)cc2)cc1 [ST-5-002, N-(4-(3-(4-hydroxyphenyl)isoxazole-5-yl)phenyl)-4-methylbenzamide]?
A: body weight [1]: not affected; inhibitory effect on liver cancer formation ([1]; 5 mg/kg IP twice a week, 6 times, images (FIG. 21b)): distinct; tumor volume ([1]; 5 mg/kg IP twice a week): significantly reduced; PD-L1 expression [1]: decrease; SLAMF7 staining [1]: infiltrating into the cancer site; expression of TM4SF5 [1]: not significantly different; expressions of Ki67, AFP, F4/80, CCL2 and CCL5, and laminin γ2 [1]: significantly inhibited and lowered; cancer formation [1]: inhibited

Q: With CC(=O)Nc1ccc(-c2cc(-c3ccc(O)cc3)no2)cc1 [ST-5-001, N-(4-(3-(4-hydroxyphenyl)isoxazole-5-yl)phenyl)acetamide] as the molecule, how does the body weight [1] read?
A: not affected

Q: And the tumor volume ([1]; 5 mg/kg IP twice a week)?
A: significantly reduced

Q: And the PD-L1 expression [1]?
A: decrease

Q: What about the SLAMF7 staining [1] of the same molecule?
A: infiltrating into the cancer site

Q: What about the “expression of TM4SF5” value [1] of the same molecule?
A: not significantly different

Q: And the “expressions of Ki67, AFP, F4/80, CCL2 and CCL5, and laminin γ2” value [1]?
A: significantly inhibited and lowered

Q: And the cancer formation [1]?
A: inhibited

Q: For COc1ccc(-c2cc(-c3ccc(N)cc3)no2)cc1 [ST-1-025, 4-(5-(4-methoxyphenyl)isoxazole-3-yl)aniline], which growth or proliferation [2] is on record?
A: decreased

Q: And the “binding of TM4SF5 to EGFR, CD44, and GLUT4” value ([3]; 3 µM, SNU449 (FIG. 4))?
A: slightly inhibited

Q: With COc1ccc(-c2cc(-c3ccc(NC(C)=O)cc3)no2)cc1 [ST-2-001, N-(4-(5-(4-methoxyphenyl)isoxazole-3-yl)phenyl)acetamide] as the molecule, how does the “binding between TM4SF5 and EGFR, integrin α5, CD133, CD44, mTOR, IL-6R α, GLUT1, and GLUT4” value ([3]; 5 µM, SNU449 (FIG. 6)) read?
A: inhibited

Q: For Cc1ccc(S(=O)(=O)Nc2ccc(C(=O)/C=C/c3ccc(O)cc3)cc2)cc1 [TSAHC, 4'-(p-toluenesulfonylamino)-4-hydroxychalcone, reference compound], which growth or proliferation [2] is on record?
A: decreased
